Test results reported in US12071436B2, “Anti-parasitic compounds and uses thereof” (Memorial Sloan-Kettering Cancer Center, priority 2016, dated 2024).

Columns and labels:
[1] = test system: HepG2 human hepatoma cells; assay: HepG2 cytotoxicity, MTS cell proliferation assay; format: cell-based; conditions: 48 h, n=1
Description: (§1) Select compounds described herein were evaluated for structure-activity analyses for anti-plasmodial activity in vitro. For Dd2 EC50 (M), calculations were for n=3. For HepG2 EC50 (M), calculations were for n=1. For the human microsomal stability determination, t was 60 minutes.
Selected compounds were evaluated for cytotoxicity using HepG2 human hepatoma cells. A 384-well clear bottom plate was seeded with 2,500 cells/well and incubated for 24 h. Serial dilutions of the compound (were added to the plate and plates were incubated for an additional 48 h. Viability of cells were assessed by MTS [(3-(4,5-dimethylthiazol-2-yl)-5-(3-carboxymethoxyphenyl)-2-(4-sulfophenyl)-2H-tetrazolium) cell proliferation assay (CellTiter 96® Aqueous non-radioactive cell proliferation assay, Promega) (See Cory et al., Cancer Communications, 3, 1991, p. 207-212).

P. falciparum Dd2 = assay: Anti-plasmodial growth inhibition, SYBR green I-based DNA quantification; format: cell-based; conditions: Plasmodium falciparum, 72 h incubation, n=3
Description: as §1
Different dilutions of the compound in RPMI 1640 (Life Technologies) from a stock of 10 mM in dimethyl sulfoxide (DMSO) were added to the culture at a 1% parasitemia and 2% hematocrit in 96-well black plates (Santa Cruz Biotechnology). Maximum DMSO concentration in the culture never exceeded 0.25%. Chloroquine at 1 μM was used as a positive control to determine the baseline value. Following 72 h incubation at 37° C., the ability of the compounds to inhibit growth of the parasite was determined by a SYBR green I-based DNA quantification assay (See Bennett et al., 2004, Chemother. 48, 1807-1810; see also Johnson et al., 2007, Antimicrob. Agents. Chemother. 51, 1926-1933; Smilkstein et al., 2004, Antimicrob. Agents. Chemother. 48, 1803-1806). EC50 was calculated (n=3) from a dose response curve that was generated from a concentration range of 0-20 μM using GraphPad Prism v5.0.

| Structure (SMILES) | EC50 [1] [µM] | EC50 (P. falciparum Dd2) [µM] |
| --- | --- | --- |
| CC(C)(C)[S@@+]([O-])N1Cc2cc(C(=O)NCC(F)(F)F)nc(-c3cccc(-c4cc5ccccc5o4)c3)c2[C@H]1CCO [2015-foleyc-226, (R)-4-(3-(benzofuran-2-yl)phenyl)-2-((R)-tert-butylsulfinyl)-3-(2-hydroxyethyl)-N-(2,2,2-trifluoroethyl)-2,3-dihydro-1H-pyrrolo[3,4-c]pyridine-6-carboxamide] | > 100 | > 25 |
| CC(C)(C)[S@@+]([O-])N1Cc2cc(C(=O)NCc3ccc4c(c3)OCO4)nc(-c3cccc(-c4cccnc4)c3)c2C1 [2015-foleyc-212, (R)-N-(benzo[d][1,3]dioxol-5-ylmethyl)-2-(tert-butylsulfinyl)-4-(3-(pyridin-3-yl)phenyl)-2,3-dihydro-1H-pyrrolo[3,4-c]pyridine-6-carboxamide] | > 100 | > 25 |
| CC(C)(C)[S@@+]([O-])N1Cc2cc(C(=O)NCc3ccccc3F)nc(-c3cccc(-c4cccnc4)c3)c2C1 [2015-foleyc-213, (R)-2-(tert-butylsulfinyl)-N-(2-fluorobenzyl)-4-(3-(pyridin-3-yl)phenyl)-2,3-dihydro-1H-pyrrolo[3,4-c]pyridine-6-carboxamide] | > 100 | > 25 |
| CC(C)(C)[S@+]([O-])N1Cc2cc(C(=O)NCc3ccc4c(c3)OCO4)nc(-c3cccc(-c4cccnc4)c3)c2[C@@H]1CCO [ent-Tan003-008] | – | 0.86 ± 0.08 |
| CC(C)NC(=O)N1Cc2cc(C(N)=O)nc(-c3cccc(-c4cc5ccccc5o4)c3)c2[C@H]1CCO [2015-foleyc-248, (R)-4-(3-(benzofuran-2-yl)phenyl)-3-(2-hydroxyethyl)-N^2-isopropyl-1,3-dihydro-2H-pyrrolo[3,4-c]pyridine-2,6-dicarboxamide] | > 100 | > 25 |
| CC(C)(C)[S@@+]([O-])N1Cc2cc(C(=O)NCC(F)(F)F)nc(-c3cccc(-c4cccnc4)c3)c2[C@H]1CCO [2015-foleyc-237, (R)-2-((R)-tert-butylsulfinyl)-3-(2-hydroxyethyl)-4-(3-(pyridin-3-yl)phenyl)-N-(2,2,2-trifluoroethyl)-2,3-dihydro-1H-pyrrolo[3,4-c]pyridine-6-carboxamide] | > 100 | 5.84 ± 0.94 |
